Assay results as given in US11840686B2, “Modulation of prekallikrein (PKK) expression” (Ionis Pharmaceuticals, Inc., priority 2013, dated 2023).
Strand notation (5' to 3'): a small letter for the sugar, then the base; units joined by * are phosphorothioate-linked, units joined directly phosphodiester-linked; [ ] holds rarer units or linkages, { } end groups; capitals alone tell only the bases. e = 2'-O-(2-methoxyethyl) (MOE); [5mC] = 5-methylcytosine; d = 2'-deoxy (DNA)

What was measured:
human PKK mRNA [1] = experiment: Antisense inhibition of human PKK mRNA in HepaRG cells, 5,000 nM (Example 2); assay type: cell-based; conditions: HepaRG cells, electroporation with 5,000 nM antisense oligonucleotide, approximately 24 hours, PKK mRNA by RT-PCR (RTS3454), relative to untreated control cells
Outline: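 qRT-PCR (RTS3454) read-out, RIBOGREEN-normalized; % inhibition vs untreated cells. HepaRG, 20,000 cells/well, electroporation, 5,000 nM ASO, ~24 h.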

human PKK mRNA [2] = experiment: Dose-dependent antisense inhibition of human PKK in HepaRG cells, 0.19-5.00 uM (Example 5); assay type: cell-based; conditions: HepaRG cells; for percent inhibition of PKK at 0.19 μM / percent inhibition of PKK at 0.56 μM / percent inhibition of PKK at 1.67 μM / percent inhibition of PKK at 5.00 μM / percent inhibition of PKK at 0.19 0μM / percent inhibition of PKK at 0.56 0μM / percent inhibition of PKK at 1.67 1μM: electroporation, approximately 16 hours; for percent inhibition of PKK mRNA, 0.19 μM: 0.19 μM antisense oligonucleotide; for percent inhibition of PKK mRNA, 0.56 μM: 0.56 μM antisense oligonucleotide; for percent inhibition of PKK mRNA, 1.67 μM: 1.67 μM antisense oligonucleotide; for percent inhibition of PKK mRNA, 5.00 μM: 5.00 μM antisense oligonucleotide
Outline: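 PKK mRNA knockdown was measured by real-time PCR (primer probe set RTS3454) about 16 h after electroporating 20,000 HepaRG cells per well with oligonucleotide at four doses from 0.19 to 5.00 μM. Levels were adjusted to RIBOGREEN-measured total RNA, and IC50 values were calculated.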

[3] = 4 point dose response, Table 35
[4] = 4 point dose response, Table 41
[5] = 4 point dose response, Table 39
[6] = 4 point dose response, Table 40
[7] = 4 point dose response, Table 36
[8] = 4 point dose response, Table 38

Substance | % inhibition (human PKK mRNA [1]; Table 5 experiment) [%] | percent inhibition of PKK at 0.19 μM (human PKK mRNA [2]; Table 35) [%] | percent inhibition of PKK at 0.56 μM (human PKK mRNA [2]; Table 35) [%] | percent inhibition of PKK at 1.67 μM (human PKK mRNA [2]; Table 35) [%] | IC50 (human PKK mRNA [2]; [3]) [nM] | percent inhibition of PKK mRNA, 0.19 μM (human PKK mRNA [2]) [%] | percent inhibition of PKK mRNA, 0.56 μM (human PKK mRNA [2]) [%] | percent inhibition of PKK mRNA, 1.67 μM (human PKK mRNA [2]) [%] | percent inhibition of PKK mRNA, 5.00 μM (human PKK mRNA [2]) [%] | IC50 (human PKK mRNA [2]; 0.19-5.00 μM) [nM] | % inhibition (human PKK mRNA [1]; Table 6 experiment) [%] | other results
547273 (antisense eT*eG*eA*eG*eT*d[5mC]*dT*d[5mC]*dT*dT*dG*dT*d[5mC]*dA*d[5mC]*eT*eT*eA*eA*eA) [compound 547273] | 93 | 44 | 69 | 87 | 200 |  |  |  |  |  |  | percent inhibition of PKK at 5.00 μM (human PKK mRNA [2]; Table 35): 87%; percent inhibition of PKK at 5.00 μM (human PKK mRNA [2]; Table 41): 83%; percent inhibition of PKK at 0.19 0μM (human PKK mRNA [2]; Table 41): 0%; percent inhibition of PKK at 0.56 0μM (human PKK mRNA [2]; Table 41): 60%; percent inhibition of PKK at 1.67 1μM (human PKK mRNA [2]; Table 41): 82%; IC50 (human PKK mRNA [2]; [4]): 600 nM
547275 (antisense eT*eT*eG*eG*eA*dG*dG*dT*dG*dA*dG*dT*d[5mC]*dT*d[5mC]*eT*eT*eG*eT*e[5mC]) [compound 547275] | 87 |  |  |  |  | 56 | 16 | 80 | 86 | 1200 |  | percent inhibition of PKK at 0.19 μM (human PKK mRNA [2]; Table 39): 34%; percent inhibition of PKK at 0.56 μM (human PKK mRNA [2]; Table 39): 66%; percent inhibition of PKK at 1.67 μM (human PKK mRNA [2]; Table 39): 82%; percent inhibition of PKK at 5.00 μM (human PKK mRNA [2]; Table 39): 95%; IC50 (human PKK mRNA [2]; [5]): 300 nM
547276 (antisense e[5mC]*eA*eA*eT*eT*dG*d[5mC]*dT*dT*d[5mC]*dT*dT*dG*dG*dA*eG*eG*eT*eG*eA) [compound 547276] | 93 | 35 | 44 | 71 | 600 | 6 | 3 | 53 | 68 | 2200 |  | percent inhibition of PKK at 5.00 μM (human PKK mRNA [2]; Table 35): 77%
547277 (antisense e[5mC]*eA*e[5mC]*eA*eA*dT*dT*dG*d[5mC]*dT*dT*d[5mC]*dT*dT*dG*eG*eA*eG*eG*eT) [compound 547277] | 75 |  |  |  |  |  |  |  |  |  |  | percent inhibition of PKK at 0.19 μM (human PKK mRNA [2]; Table 40): 2%; percent inhibition of PKK at 0.56 μM (human PKK mRNA [2]; Table 40): 32%; percent inhibition of PKK at 1.67 μM (human PKK mRNA [2]; Table 40): 34%; percent inhibition of PKK at 5.00 μM (human PKK mRNA [2]; Table 40): 62%; IC50 (human PKK mRNA [2]; [6]): 2800 nM
547288 (antisense e[5mC]*eA*eT*eA*eG*dA*dG*dT*dT*dG*dA*dG*dT*d[5mC]*dA*eG*eA*e[5mC]*eA*eT) [compound 547288] | 80 |  |  |  |  |  |  |  |  |  |  | percent inhibition of PKK at 0.19 μM (human PKK mRNA [2]; Table 40): 0%; percent inhibition of PKK at 0.56 μM (human PKK mRNA [2]; Table 40): 0%; percent inhibition of PKK at 1.67 μM (human PKK mRNA [2]; Table 40): 0%; percent inhibition of PKK at 5.00 μM (human PKK mRNA [2]; Table 40): 38%; IC50 (human PKK mRNA [2]; [6]): > 5000 nM
547293 (antisense e[5mC]*eA*eT*e[5mC]*eT*dG*dG*d[5mC]*dA*dG*dT*dA*dT*dT*dG*eG*eG*e[5mC]*eA*eT) [compound 547293] | 92 |  |  |  |  | 0 | 45 | 65 | 70 | 1300 |  | percent inhibition of PKK at 0.19 μM (human PKK mRNA [2]; Table 36): 53%; percent inhibition of PKK at 0.56 μM (human PKK mRNA [2]; Table 36): 57%; percent inhibition of PKK at 1.67 μM (human PKK mRNA [2]; Table 36): 80%; percent inhibition of PKK at 5.00 μM (human PKK mRNA [2]; Table 36): 86%; IC50 (human PKK mRNA [2]; [7]): 200 nM
547294 (antisense e[5mC]*eT*e[5mC]*eA*eT*d[5mC]*dT*dG*dG*d[5mC]*dA*dG*dT*dA*dT*eT*eG*eG*eG*e[5mC]) [compound 547294] | 85 |  |  |  |  | 4 | 70 | 84 | 91 | 600 |  | percent inhibition of PKK at 0.19 μM (human PKK mRNA [2]; Table 38): 28%; percent inhibition of PKK at 0.56 μM (human PKK mRNA [2]; Table 38): 59%; percent inhibition of PKK at 1.67 μM (human PKK mRNA [2]; Table 38): 87%; percent inhibition of PKK at 5.00 μM (human PKK mRNA [2]; Table 38): 86%; IC50 (human PKK mRNA [2]; [8]): 400 nM
547298 (antisense eT*eT*eG*eG*eG*dT*dG*dG*dA*dA*dT*dG*dT*dG*d[5mC]*eA*e[5mC]*e[5mC]*eT*e[5mC]) [compound 547298] | 90 |  |  |  |  | 0 | 12 | 67 | 87 | 1700 |  | percent inhibition of PKK at 0.19 μM (human PKK mRNA [2]; Table 36): 32%; percent inhibition of PKK at 0.56 μM (human PKK mRNA [2]; Table 36): 61%; percent inhibition of PKK at 1.67 μM (human PKK mRNA [2]; Table 36): 74%; percent inhibition of PKK at 5.00 μM (human PKK mRNA [2]; Table 36): 90%; IC50 (human PKK mRNA [2]; [7]): 400 nM
547335 (antisense eT*eT*eA*eT*eA*dA*dA*dT*dG*dT*d[5mC]*dT*d[5mC]*dG*dA*eT*eG*eG*e[5mC]*eA) [compound 547335] |  | 8 | 52 | 85 | 700 | 0 | 13 | 73 | 95 | 1300 | 93 | percent inhibition of PKK at 5.00 μM (human PKK mRNA [2]; Table 35): 92%
547337 (antisense eA*eA*e[5mC]*eT*e[5mC]*d[5mC]*dT*dT*dT*dA*dT*dA*dA*dA*dT*eG*eT*e[5mC]*eT*e[5mC]) [compound 547337] |  |  |  |  |  |  |  |  |  |  | 84 | percent inhibition of PKK at 0.19 μM (human PKK mRNA [2]; Table 38): 23%; percent inhibition of PKK at 0.56 μM (human PKK mRNA [2]; Table 38): 41%; percent inhibition of PKK at 1.67 μM (human PKK mRNA [2]; Table 38): 55%; percent inhibition of PKK at 5.00 μM (human PKK mRNA [2]; Table 38): 79%; IC50 (human PKK mRNA [2]; [8]): 1000 nM
547340 (antisense e[5mC]*eT*e[5mC]*e[5mC]*eT*d[5mC]*dT*d[5mC]*dA*dT*dA*dT*d[5mC]*dA*dA*e[5mC]*eT*e[5mC]*e[5mC]*eT) [compound 547340] |  | 46 | 79 | 88 | 200 |  |  |  |  |  | 93 | percent inhibition of PKK at 0.19 0μM (human PKK mRNA [2]; Table 41): 34%; percent inhibition of PKK at 0.56 0μM (human PKK mRNA [2]; Table 41): 84%; percent inhibition of PKK at 1.67 1μM (human PKK mRNA [2]; Table 41): 96%; IC50 (human PKK mRNA [2]; [4]): 300 nM
547341 (antisense eG*eA*e[5mC]*eT*e[5mC]*d[5mC]*dT*d[5mC]*dT*d[5mC]*dA*dT*dA*dT*d[5mC]*eA*eA*e[5mC]*eT*e[5mC]) [compound 547341] |  |  |  |  |  | 45 | 44 | 81 | 95 | 600 | 87 | percent inhibition of PKK at 0.19 μM (human PKK mRNA [2]; Table 39): 36%; percent inhibition of PKK at 0.56 μM (human PKK mRNA [2]; Table 39): 58%; percent inhibition of PKK at 1.67 μM (human PKK mRNA [2]; Table 39): 91%; percent inhibition of PKK at 5.00 μM (human PKK mRNA [2]; Table 39): 95%; IC50 (human PKK mRNA [2]; [5]): 300 nM
